According to paper PMC8869097, “Benzothiazole Derivatives as Multifunctional Antioxidant Agents for Skin Damage: Structure–Activity Relationship of a Scaffold Bearing a Five-Membered Ring System” (Antioxidants, 2022):

Columns and labels:
[1] = UV spectra of compounds in solution (filtering parameters); assay type: physicochemical
Procedure: The evaluation of the sun protection parameters has been carried out using a UV-Vis spectrophotometer. The absorbance of the solutions of the test compounds dissolved in the different solvents (DMSO, MeOH, DMSO–H2O 4:6, DMSO–H2O 6:4, HE) at a concentration of 0.0015 (±0.000005)% was recorded in the range 290–400 nm using a 1 cm quartz cell at 1 nm intervals. It was decided to evaluate the profile of the compounds in the Peg-7 Glyceryl Cocoate (HE) oil, which is the emollient of choice to solubilize the compounds in a formulation suitable for in vivo analysis. Wavelength absorbance is in relationship with transmittance (T (λ)) from Equation (2) A (λ) = […](2) where T (λ) is the fraction of incident irradiance that is transmitted through a sample.
The three parameters were determined, respectively, in DMSO and in methanol in order to perform a comparison (Table S1).
Since DMSO is a solvent with characteristics very close to those of an oil, the analysis was also carried out in solutions that mimic the possible conditions of a formulation. For this reason, the 4:6 and 6:4 proportions of DMSO–H2O were chosen to evaluate the choice of an oil-in-water or water-in-oil emulsion.

[2] = test system: Epidermophyton floccosum; assay: Antidermatophyte activity, plaque growth inhibition; assay type: cell-based, Epidermophyton floccosum var. floccosum CBS 358.93; conditions: 100 μg/mL, SDA, read-out: % Inhibition Growth E. floccosum
Procedure: (§1) The dermatophytes used in this study were Epidermophyton floccosum var. floccosum (Netherlands) CBS 358.93 strain, Trichophyton tonsurans (Netherlands) CBS 483.76 strain, Trichophyton mentagrophytes (Netherlands) CBS 160.66 strain, Microsporum canis (Iran) CBS 131,110 strain, and Microsporum gypseum (Iran) CBS 130,948 strain. All dermatophytes were maintained at 4 °C as agar slants on SDA. Candida albicans (ATCC 10231) was maintained at 4 °C on SDA plate.
(§2) The in vitro antifungal activity against the five selected dermatophytes was evaluated, as previously described, using the plaque growth inhibition method. All compounds were evaluated at the final concentration of 100 µg/mL. The percentages of growth inhibition according to Equation (5) were calculated as the average of three different experiments. I = [(C − T)/C] × 100%,(5) where I is the percentage value of growth inhibition, C is the measure of the diameter of the control circular mycelial inoculum (mm) and T is the extended diameter of the treated mycelial inoculum (mm).
(§3) All synthesized benzothiazole derivatives were evaluated to evaluate their in vitro antifungal activity against the five pathogenic dermatophytes that cause the most common dermatomycoses: Microsporum gypseum, Microsporum canis, Trichophyton mentagrophytes, Trichophyton tonsurans and Epidermophyton floccosum. All compounds were tested at a concentration of 100 µg/mL in DMSO, to evaluate the ability to inhibit the growth of dermatophyte cultures in Sabouraud Dextrose Agar (SDA). Briefly, room temperature incubation was performed and dermatophyte inhibition assessed by measuring the colony diameter at each disc for 7 days. The results are shown in Table 3 and were determined as the average of three different experiments.

[3] = test system: HEK293T cells; assay: Cytotoxicity on non-cancerous control cells; assay type: cell-based; conditions: Homo sapiens, HEK-293T, read-out: IC50 Hek293
Procedure: (§4) A stock solution of the compounds (20 mM in DMSO) was prepared and stored at −18 °C. Then, the compounds were diluted in the cell culture medium and tested starting with the 100 µM concentration as the upper limit. The application of equation (6) allowed to obtain the values of IC50. C1 − [50 − N1%/N2% − N1%] − (C1 − C2),(6) where C1 is the concentration of the compound which inhibits cell proliferation by more than 50%; C2 is the concentration of the compound which inhibits cell proliferation below 50%; N1% represents the number of cells (expressed as a percentage of control without compound) obtained in the presence of C1 and N2% represents the number of cells (as a percentage of control without compound) obtained in the presence of C2.
(§5) Finally, the compounds of this series of benzothiazole derivatives were tested to evaluate their antiproliferative activity in vitro against human T-cell leukemia cell line (CEM), human cervical carcinoma cells (HeLa), human pancreas cancer cells (Mia Paca-2) and human melanoma cells (SK-Mel 5). Non-cancerous HEK293T cells (Normal Kidney Epithelial Cells) were chosen as a control for cytotoxicity and/or selectivity. The results obtained have been summarized in Table 5 (data shown only for the active compounds) and are expressed as IC50 values in μM. The selectivity index (SI) was also reported, determined by comparing the values of IC50 (μM) obtained on healthy cells (HEK 293) with that obtained on tumor cells (CEM, HeLa, Mia-Paca-2 and SK- Mel 5) (Table 5).

[4] = test system: SK-Mel 5 cells; assay: Antiproliferative activity; assay type: cell-based; conditions: Homo sapiens, read-out: IC50 SK-Mel5
Procedure: as §4, §5

[5] = test system: Microsporum gypseum; assay: Antidermatophyte activity, plaque growth inhibition; assay type: cell-based, Microsporum gypseum CBS 130,948; conditions: Nannizzia gypsea; 100 μg/mL, SDA; read-out: % Inhibition Growth M. gypseum
Procedure: as §1, §2, §3

[6] = test system: Mia-Paca2 cells; assay: Antiproliferative activity; assay type: cell-based; conditions: Homo sapiens, MIA PaCa-2
Procedure: (§6) Human cervical carcinoma (HeLa) and human CD4+T-lymphoblast (CEM) cells were obtained from ATCC (Middlesex, UK). Human pancreatic carcinoma (Mia-Paca 2) cells were kindly provided by Prof. Anna Karlsson (Karolinska Institute, Stockholm, Sweden). All cell lines were grown in Dulbecco’s modified Eagle’s medium (DMEM; Gibco, Carlsbad, CA, USA), supplemented with 10% fetal bovine serum (FBS, Gibso), 0.01M Hepes (Gibco) and 1 mM sodium pyruvate (Gibco) in a humidified 5% CO2 incubator at 37 °C.
(§7) The cell suspensions of CEM, HeLa and Mia-Paca2 were treated with increasing concentrations of the selected compounds, following the protocol previously reported.
as §4, §5

[7] = test system: HeLa cells; assay: Antiproliferative activity; assay type: cell-based; conditions: Homo sapiens
Procedure: as §6, §7, §4, §5

[8] = test system: CEM cells; assay: Antiproliferative activity; assay type: cell-based; conditions: Homo sapiens, CCRF-CEM
Procedure: as §6, §7, §4, §5

Row | A (absorbance) ([1]; DMSO) | ε (molar extinction coefficient) ([1]; DMSO) | λmax ([1]; DMSO) [nm] | A (absorbance) ([1]; DMSO-H2O 4:6) | ε (molar extinction coefficient) ([1]; DMSO-H2O 4:6) | λmax ([1]; DMSO-H2O 4:6) [nm] | A (absorbance) ([1]; DMSO-H2O 6:4) | λmax ([1]; DMSO-H2O 6:4) [nm] | A (absorbance) ([1]; HE (Peg-7 Glyceryl Cocoate)) | A (absorbance) ([1]; MeOH) | ε (molar extinction coefficient) ([1]; MeOH) | λmax ([1]; MeOH) [nm] | IC50 [4] [µM] | IC50 [6] [µM] | IC50 [7] [µM] | melting point [°C] | Compound | inhibition at 100 µg/mL [2] [%] | IC50 [3] [µM] | inhibition at 100 µg/mL [5] [%] | IC50 [8] [µM] | other results
1 | 2.360 | 29500.00 | 333.40 | 2.35 | 31333.333 | 333.70 | 1.51 | 334.20 | 0.79 | 1.540 | 23692.31 | 329.40 | 41 ± 4 | 87 ± 18 | 65 ± 2 | 132 | c1c[nH]c(-c2nc3ccccc3s2)c1 [Compound 8a, 2-(1H-Pyrrol-2-Yl)benzothiazole] | 26 ± 0.66 | 68 ± 14 | 50 ± 1.34 | > 100 | ε (molar extinction coefficient) ([1]; DMSO-H2O 6:4): 23239.769; ε (molar extinction coefficient) ([1]; HE (Peg-7 Glyceryl Cocoate)): 12153.846; λmax ([1]; HE (Peg-7 Glyceryl Cocoate)): 332.80 nm
2 | 1.620 | 21715.82 | 322.10 | 2.43 | 34863.702 | 322.77 | 1.95 | 323.00 | 1.18 | 2.750 | 32505.91 | 316.40 | 98 ± 2 | > 100 | > 100 | 103 | c1coc(-c2nc3ccccc3s2)c1 [Compound 9a, 2-(Furan-2-Yl)benzothiazole] | 68.85 ± 0.54 | > 100 | 74.78 ± 0.59 | 41 ± 5 | ε (molar extinction coefficient) ([1]; HE (Peg-7 Glyceryl Cocoate)): 15817.594; λmax ([1]; HE (Peg-7 Glyceryl Cocoate)): 320.70 nm
3 | 0.880 | 12735.17 | 321.80 | 0.75 | 12520.868 | 322.67 | 1.29 | 323.00 | 1.32 | 0.760 | 9706.26 | 319.50 | 50 ± 5 | > 100 | > 100 | 99 | c1csc(-c2nc3ccccc3s2)c1 [Compound 10a, 2-(Thiophen-2-Yl)benzothiazole] | 54.1 ± 0.75 | > 100 | 70.4 ± 0.77 | 45 ± 3 | ε (molar extinction coefficient) ([1]; DMSO-H2O 6:4): 21535.893; ε (molar extinction coefficient) ([1]; HE (Peg-7 Glyceryl Cocoate)): 14316.703; λmax ([1]; HE (Peg-7 Glyceryl Cocoate)): 320.30 nm
4 | 0.890 | 20273.35 | 336.50 | – | – | – | – | – | – | 0.430 | 9704.99 | 333.17 | > 100 | 13 ± 3 | > 100 | > 250 | NS(=O)(=O)c1ccc2nc(-c3cccs3)sc2c1 [Compound 10c, 2-(Thiophen-2-Yl)benzothiazole-6-Sulfonamide] | 10.7 ± 0.31 | > 100 | 12.36 ± 0.05 | > 100 | –
5 | – | – | – | – | – | – | – | – | – | – | – | – | 9.7 ± 1.7 | 15 ± 9 | 37 | – | c1c[nH]c(-c2nc3ccccc3[nH]2)c1 [Lead 10, reference compound] | 102 ± 4.92 | 31 ± 3 | 99.1 ± 1.33 | 14 ± 1 | –
